Assay results as given in US20090203577A1 (EXELIXIS, INC., priority 2005, published 2009).

Biological target: T1, human farnesoid X receptor (Homo sapiens, UniProt Q96RI1)
T1 construct: CMX-farnesoid X receptor (full length human farnesoid X receptor); expressed in transfected cells; host or cells: CV-1 African Green Monkey Kidney cells
T1 sequence (Q96RI1 1-472 isoform Q96RI1-2): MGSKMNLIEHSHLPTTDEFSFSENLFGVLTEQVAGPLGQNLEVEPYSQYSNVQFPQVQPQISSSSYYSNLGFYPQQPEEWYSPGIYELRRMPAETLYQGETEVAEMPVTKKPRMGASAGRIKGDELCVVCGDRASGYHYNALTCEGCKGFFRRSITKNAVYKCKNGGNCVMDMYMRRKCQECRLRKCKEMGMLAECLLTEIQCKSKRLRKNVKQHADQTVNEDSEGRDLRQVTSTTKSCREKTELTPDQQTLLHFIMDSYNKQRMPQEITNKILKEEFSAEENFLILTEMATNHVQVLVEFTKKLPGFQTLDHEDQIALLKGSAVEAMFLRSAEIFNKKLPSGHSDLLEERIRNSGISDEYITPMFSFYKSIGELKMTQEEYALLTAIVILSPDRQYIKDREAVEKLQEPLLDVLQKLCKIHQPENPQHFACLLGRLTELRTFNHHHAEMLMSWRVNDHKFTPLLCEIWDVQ
T1 sequence (P19793 1-462 partner): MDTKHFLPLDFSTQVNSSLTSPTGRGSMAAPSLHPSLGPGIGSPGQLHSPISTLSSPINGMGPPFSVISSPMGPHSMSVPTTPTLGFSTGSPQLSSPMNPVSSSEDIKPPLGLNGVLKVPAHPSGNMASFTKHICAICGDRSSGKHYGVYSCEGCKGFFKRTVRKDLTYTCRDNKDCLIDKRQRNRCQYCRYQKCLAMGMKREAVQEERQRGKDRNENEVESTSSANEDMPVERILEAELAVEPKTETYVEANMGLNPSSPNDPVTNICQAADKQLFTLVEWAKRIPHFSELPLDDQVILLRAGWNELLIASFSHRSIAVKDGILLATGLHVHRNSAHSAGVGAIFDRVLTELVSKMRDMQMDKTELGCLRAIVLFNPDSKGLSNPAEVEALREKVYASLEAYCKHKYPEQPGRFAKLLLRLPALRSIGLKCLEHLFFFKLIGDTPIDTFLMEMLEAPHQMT
Assay: FXR in vitro assays (farnesoid X receptor/ECREx7 co-transfection assay, TR-FRET assay), Table I
Assay type: cell-based
Conditions: for EC50: agonist activity, one or more of the in vitro assays, read-out: EC50; for Emax: read-out: % Efficacy
Summary of the method: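 CV-1 monkey kidney cells transfected for an FXR/ECREx7 luciferase co-transfection reporter; luciferase read 18-20 h later in lysates. 8-point dose-response at ½-log spacing, 4 wells per point; EC50/IC50 from four-parameter Hill fit, averaged over at least 3 independent experiments.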

SMILES	EC50 [nM]	Emax [%]
CC(C)OC(=O)C1=CN(C(=O)c2cccc(C#N)c2)CC(C)(C)c2c1[nH]c1ccccc21 [Example 142, 1-methylethyl 3-[(3-cyanophenyl)carbonyl]-1,1-dimethyl-1,2,3,6-tetrahydroazepino[4,5-b]indole-5-carboxylate]	10 to 100	> 100
CC(C)OC(=O)C1=CN(C(=O)c2ccc(Cl)cc2Cl)CC(C)(C)c2c1[nH]c1ccccc21 [Example 143, 1-methylethyl 3-[(2,4-dichlorophenyl)carbonyl]-1,1-dimethyl-1,2,3,6-tetrahydroazepino[4,5-b]indole-5-carboxylate]	10 to 100	> 100
Cc1cc(C(=O)N2C=C(C(=O)OC(C)C)c3[nH]c4ccccc4c3C(C)(C)C2)ccc1F [Example 144, 1-methylethyl 3-[(4-fluoro-3-methylphenyl)carbonyl]-1,1-dimethyl-1,2,3,6-tetrahydroazepino[4,5-b]indole-5-carboxylate]	1 to 10	> 100
CC(C)OC(=O)C1=CN(C(=O)c2c(F)ccc(Cl)c2F)CC(C)(C)c2c1[nH]c1ccccc21 [Example 145, 1-methylethyl 3-[(3-chloro-2,6-difluorophenyl)carbonyl]-1,1-dimethyl-1,2,3,6-tetrahydroazepino[4,5-b]indole-5-carboxylate]	100 to 1000	> 100
CC(C)OC(=O)C1=CN(C(=O)c2ccc(F)c(Cl)c2)CC(C)(C)c2c1[nH]c1ccccc21 [Example 147, 1-methylethyl 3-[(3-chloro-4-fluorophenyl)carbonyl]-1,1-dimethyl-1,2,3,6-tetrahydroazepino[4,5-b]indole-5-carboxylate]	1 to 10	> 100
CC(C)OC(=O)C1=CN(C(=O)c2ccc(Cl)c(Cl)c2)CC(C)(C)c2c1[nH]c1ccccc21 [Example 148, 1-methylethyl 3-[(3,4-dichlorophenyl)carbonyl]-1,1-dimethyl-1,2,3,6-tetrahydroazepino[4,5-b]indole-5-carboxylate]	10 to 100	> 100
CC(C)OC(=O)C1=CN(C(=O)c2cc(F)c(Cl)cc2F)CC(C)(C)c2c1[nH]c1ccccc21 [Example 149, 1-methylethyl 3-[(4-chloro-2,5-difluorophenyl)carbonyl]-1,1-dimethyl-1,2,3,6-tetrahydroazepino[4,5- ]indole-5-carboxylate]	10 to 100	> 100
CC(C)OC(=O)C1=CN(C(=O)c2cccc(CN3CCN(S(C)(=O)=O)CC3)c2)CC(C)(C)c2c1[nH]c1ccccc21 [Example 151, 1-methylethyl 1,1-dimethyl-3-[(3-{[4-(methylsulfonyl)piperazin-1-yl]methyl}phenyl)carbonyl]-1,2,3,6-tetrahydroazepino[4,5-b]indole-5-carboxylate]	100 to 1000	> 100
CC(C)OC(=O)C1=CN(C(=O)c2cccc(CN3CCCCCC3)c2)CC(C)(C)c2c1[nH]c1ccccc21 [Example 152, 1-methylethyl 3-{[3-(azepan-1-ylmethyl)phenyl]carbonyl}-1,1-dimethyl-1,2,3,6-tetrahydroazepino[4,5-b]indole-5-carboxylate]	10 to 100	> 100
CC(C)OC(=O)C1=CN(C(=O)c2cccc(CN3CCCN(C)CC3)c2)CC(C)(C)c2c1[nH]c1ccccc21 [Example 153, 1-methylethyl 1,1-dimethyl-3-({3-[(4-methyl-1,4-diazepan-1-yl)methyl]phenyl}carbonyl)-1,2,3,6-tetrahydroazepino[4,5-b]indole-5-carboxylate]	1000 to 10000	> 100
CC(C)OC(=O)C1=CN(C(=O)c2ccc(F)c(Br)c2)CC(C)(C)c2c1[nH]c1ccccc21 [Example 154, 1-methylethyl 3-[(3-bromo-4-fluorophenyl)carbonyl]-1,1-dimethyl-1,2,3,6-tetrahydroazepino[4,5-b]indole-5-carboxylate]	10 to 100	> 100
CC(C)OC(=O)C1=CN(C(=O)c2cc(CN3CCOCC3)ccc2F)CC(C)(C)c2c1[nH]c1ccccc21 [Example 155, 1-methylethyl 3-{[2-fluoro-5-(morpholin-4-ylmethyl)phenyl]carbonyl}-1,1-dimethyl-1,2,3,6-tetrahydroazepino[4,5-b]indole-5-carboxylate]	100 to 1000	> 100
CC(C)OC(=O)C1=CN(C(=O)c2ccc3c(c2)nnn3C)CC(C)(C)c2c1[nH]c1ccccc21 [Example 157, 1-methylethyl 1,1-dimethyl-3-[(1-methyl-1H-1,2,3-benzotriazol-5-yl)carbonyl]-1,2,3,6-tetrahydroazepino[4,5-b]indole-5-carboxylate]	10 to 100	> 100
CC(C)OC(=O)C1=CN(C(=O)c2cccc(OCCN3CCOCC3)c2)CC(C)(C)c2c1[nH]c1ccccc21 [Example 160, 1-methylethyl 1,1-dimethyl-3-({3-[(2-morpholin-4-ylethyl)oxy]phenyl}carbonyl)-1,2,3,6-tetrahydroazepino[4,5-b]indole-5-carboxylate]	–	> 100
CC1(C)CN(C(=O)c2ccc(F)c(F)c2)C=C(C(=O)NOCC(O)CO)c2[nH]c3ccccc3c21 (stereo not shown) [Example 161, 3-[(3,4-difluorophenyl)carbonyl]-N-[(2,3-dihydroxypropyl)oxy]-1,1-dimethyl-1,2,3,6-tetrahydroazepino[4,5-b]indole-5-carboxamide]	> 10000	–
CC1(C)CN(C(=O)c2ccc(F)c(F)c2)C=C(C(=O)NCC(O)CO)c2[nH]c3ccccc3c21 (stereo not shown) [Example 162, 3-[(3,4-difluorophenyl)carbonyl]-N-(2,3-dihydroxypropyl)-1,1-dimethyl-1,2,3,6-tetrahydroazepino[4,5-b]indole-5-carboxamide]	> 10000	–
CC1(C)CN(C(=O)c2ccc(F)c(F)c2)C=C(C(=O)NC(CO)CO)c2[nH]c3ccccc3c21 [Example 163, 3-[(3,4-difluorophenyl)carbonyl]-N-[2-hydroxy-1-(hydroxymethyl)ethyl]-1,1-dimethyl-1,2,3,6-tetrahydroazepino[4,5-b]indole-5-carboxamide]	1000 to 10000	> 100
CC(C)OC(=O)C1=CN(C(=O)c2cccc(CN3CCN(C(=O)OC(C)(C)C)CC3)c2)CC(C)(C)c2c1[nH]c1ccccc21 [Example 166, 1-methyethyl 3-({3-[(4-{[(1,1-dimethylethyl)oxy]carbonyl}piperazin-1-yl)methyl]phenyl}carbonyl)-1,1-dimethyl-1,2,3,6-tetrahydroazepino[4,5-b]indole-5-carboxylate]	100 to 1000	> 100
CC(C)OC(=O)C1=CN(C(=O)c2cccc(CN3CCN(S(=O)(=O)c4ccccc4)CC3)c2)CC(C)(C)c2c1[nH]c1ccccc21 [Example 167, 1-methylethyl 1,1-dimethyl-3-[(3-{[4-(phenylsulfonyl)piperazin-1-yl]methyl}phenyl)carbonyl]-1,2,3,6-tetrahydroazepino[4,5-b]indole-5-carboxylate]	100 to 1000	> 100
CC(C)OC(=O)C1=CN(C(=O)c2cccc(CN3CCN(S(=O)(=O)c4ccc(F)cc4)CC3)c2)CC(C)(C)c2c1[nH]c1ccccc21 [Example 168, 1-methylethyl 3-{[3-({4-[(4-fluorophenyl)sulfonyl]piper-azin-1-yl}methyl)phenyl]carbonyl}-1,1-dimethyl-1,2,3,6-tetrahydroazepino[4,5-b]indole-5-carboxylate]	100 to 1000	> 100
CCS(=O)(=O)N1CCN(Cc2cccc(C(=O)N3C=C(C(=O)OC(C)C)c4[nH]c5ccccc5c4C(C)(C)C3)c2)CC1 [Example 172, 1-methylethyl 3-[(3-{[4-(ethylsulfonyl)piperazin-1-yl]methyl}phenyl)carbonyl]-1,1-dimethyl-1,2,3,6-tetrahydroazepino[4,5-b]indole-5-carboxylate]	100 to 1000	> 100
CC(C)OC(=O)C1=CN(C(=O)c2cccc(CN3CCN(C(=O)C4CC4)CC3)c2)CC(C)(C)c2c1[nH]c1ccccc21 [Example 173, 1-methylethyl 3-[(3-{[4-(cyclopropylcarbonyl)piper-azin-1-yl]methyl}phenyl)carbonyl]-1,1-dimethyl-1,2,3,6-tetrahydroazepino[4,5-b]indole-5-carboxylate]	100 to 1000	> 100
CC(C)OC(=O)C1=CN(C(=O)c2cccc(CN3CCN(C(=O)C(C)C)CC3)c2)CC(C)(C)c2c1[nH]c1ccccc21 [Example 174, 1-methylethyl 1,1-dimethyl-3-[(3-{[4-(2-methylpropanoyl)piperazin-1-yl]methyl}phenyl)carbonyl]-1,2,3,6-tetrahydroazepino[4,5-b]indole-5-carboxylate]	100 to 1000	> 100
